Laboratory results taken from article PMC5320518, “Novel Liver-targeted conjugates of Glycogen Phosphorylase Inhibitor PSN-357 for the Treatment of Diabetes: Design, Synthesis, Pharmacokinetic and Pharmacological Evaluations” (Scientific Reports, 2017).
Where “and” joins values, the source holds several entries; their conditions need not be identical. Equal entries are not always repeated. Where two headings read alike, the source gives them in different places.

How the values were obtained:
[1] = Stability in simulated gastric fluid (SGF); format: in vitro ADME; settings: SGF pH 1.21 with pepsin, 2 μM, 37 °C; for stability in SGF (in words): 24 h incubation
Method: (§1) All the conjugates were tested for their chemical and metabolic stability in multiple assays, including simulated gastric fluid (SGF), simulated interstinal fluid (SIF), mouse plasma, and mouse liver microsome (MLM).
(§2) For the stability in SGF (Fig. 8) and SIF (Fig. 9), the conjugates could be divided into three groups: (1) stable conjugates 2, 6 and 9. […] The two conjugates were degraded within 6 h and 1 h in SGF and SIF, respectively, with alomost no conjugates at the end of the 24 h incubation in both SGF and SIF; (3) complicated conjugates 3, 4, 5 and 8.
(§3) The simulated gastrointestinal fluids were prepared according to USP specifications. For SGF, NaCl (0.12 g) and pepsin (0.18 g, from porcine stomach mucosa) was dissolved in HCl (0.42 mL) and sufficient H2O was added to make 60 mL. The pH of the test solution was determined as 1.21 by pH meter. For the SIF, KH2PO4 (0.408 g) and pancreatin (0.6 g, from porcine pancreas) was dissolved in H2O (60 mL). The pH of the test solution was determined as 6.79 by pH meter. Each test compound was dissolved in DMSO and diluted to a final concentration of 2 μM in SIF and SGF. The final concentrations of DMSO and CH3CN in the incubation mixture were 0.2% and 0.45%. Aliquots of these solutions were pipetted into glass tubes, and placed in a 37 °C shaking water bath. Test samples at corresponding time point (1, 2, 6, 24 h) were removed at the end of incubation time and immediately mixed with 800 μL of cold acetonitrile containing 500 ng/mL tolbutamide (internal standard). Samples were subjected to centrifuge at 4000 rpm, 4 °C for 20 min. Aliquots 60 μL of supernatant was combined with 120 μL water for LC-MS/MS analysis.

[2] = Stability in simulated intestinal fluid (SIF); format: in vitro ADME; settings: for time within which degraded in SIF: SIF pH 6.79 with pancreatin, 2 μM, 37 °C
Method: as §1, §2, §3

[3] = target: T1, rabbit muscle GPa (RMGPa) (Oryctolagus cuniculus, UniProt P00489); test: RMGPa inhibition assay (phosphate release from glucose-1-phosphate); format: biochemical; settings: mean ± S.D. of three determinations; NI means no inhibition
T1 sequence (P00489 2-843 limits assumed): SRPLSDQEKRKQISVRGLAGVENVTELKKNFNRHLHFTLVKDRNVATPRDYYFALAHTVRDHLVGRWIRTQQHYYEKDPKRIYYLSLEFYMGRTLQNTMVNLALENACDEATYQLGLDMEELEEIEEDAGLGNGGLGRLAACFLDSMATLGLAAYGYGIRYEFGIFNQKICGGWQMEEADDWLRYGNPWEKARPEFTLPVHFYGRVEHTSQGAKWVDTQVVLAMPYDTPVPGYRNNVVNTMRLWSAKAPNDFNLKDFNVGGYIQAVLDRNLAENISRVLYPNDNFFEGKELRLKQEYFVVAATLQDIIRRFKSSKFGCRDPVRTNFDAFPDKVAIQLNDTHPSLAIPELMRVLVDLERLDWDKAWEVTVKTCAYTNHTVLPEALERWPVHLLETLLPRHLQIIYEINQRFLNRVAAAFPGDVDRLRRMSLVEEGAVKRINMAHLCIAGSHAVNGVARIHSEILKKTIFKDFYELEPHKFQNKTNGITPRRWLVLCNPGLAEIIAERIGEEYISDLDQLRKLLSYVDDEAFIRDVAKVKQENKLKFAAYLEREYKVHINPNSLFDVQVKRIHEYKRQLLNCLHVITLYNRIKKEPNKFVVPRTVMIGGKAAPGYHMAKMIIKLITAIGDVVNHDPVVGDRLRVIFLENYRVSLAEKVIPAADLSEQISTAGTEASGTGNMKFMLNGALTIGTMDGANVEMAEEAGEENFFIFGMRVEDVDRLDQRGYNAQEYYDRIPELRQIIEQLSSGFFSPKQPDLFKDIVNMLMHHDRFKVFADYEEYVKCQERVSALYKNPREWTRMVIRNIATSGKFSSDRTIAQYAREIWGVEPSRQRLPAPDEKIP
Method: All the compounds were evaluated for their inhibitory activity against rabbit muscle GPa (RMGPa). The activity of RMGPa was measured through detecting the release of phosphate from glucose-1-phosphate in the direction of glycogen synthesis. CP-91149, a well-known allosteric GP inhibitor, which shares the same binding site with PSN-357, was used as the positive control and the results are summarized in Table 1[21]. […] This remarkable loss of activity was probably due to the direct steric interference by such bulky substituent of cholic acid group. […] The results is consistent with the SARs of PSN-357 that the hydroxyl of piperidine is not an essential group for the GP inhibitory activity that could be modified slightly.
The inhibitory activity of the test compounds against rabbit muscle glycogen phosphorylase a (GPa) was monitored using microplate reader (BIO-RAD) based on the published method. In brief, GPa activity was measured in the direction of glycogen synthesis by the release of phosphate from glucose-1-phosphate. Each test compound was dissolved in DMSO and diluted at different concentrations for IC50 determination. The enzyme was added into 100 μL of buffer containing 50 mM Hepes (pH = 7.2), 100 mM KCl, 2.5 mM MgCl2, 0.5 mM glucose-1-phosphate, 1 mg/mL glycogen and the test compound in 96-well microplates (Costar). After the addition of 150 μL of 1 M HCl containing 10 mg/mL ammonium molybdate and 0.38 mg/mL malachite green, reactions were run at 22 °C for 25 min, and then the phosphate absorbance was measured at 655 nm. The IC50 values were estimated by fitting the inhibition data to a dose-dependent curve using a logistic derivative equation.

HepG2 cells = test: Glycogenolysis inhibition in HepG2 cells; format: cell-based, human; settings: HepG2 cells, 60-min incubation with 0.3 nM glucagon, mean ± S.D. of three, NI means no inhibition, read-out: IC50 (glycogenolysis inhibition, HepG2 cells)
Description: (§4) To evaluate the effects of all compounds in cells, the glycogenolysis assays were established in both rat and human liver cells based on the published method. […] The inhibitory activities of the derivatives of PSN-357 (e.g. 25–28) were also explored. It is not surprising that the derivatives still retained micromolar inhibitory activities. Introduction of steric bulks to the hydroxyl group (e.g. 33, 40, 42, 48) led to a complete loss of activity. Data analysis indicated no clear SAR for the substitutents in the cell-based assays.
(§5) The inhibition of hepatic glycogenolysis was monitored by the measurement of liver glycogen, which was done quantitatively by the anthrone reagent (Sigma) colorimetric method based on the published method. Isolated rat hepatocytes or HepG2 cells (Sigma) were treated with the test compound or DMSO solvent (final concentration, 0.10%), followed by 60-min incubation with 0.3 nM glucagon (GGN). Assays were terminated by centrifugation, and cells were digested with 30% KOH followed by glycogen determination. The IC50 values were estimated by fitting the inhibition data to a dose-dependent curve using a logistic derivative equation.

isolated rat hepatocytes = test: Glycogenolysis inhibition in isolated rat hepatocytes; format: cell-based; settings: mean ± S.D. of three, NI means no inhibition
Description: as §4, §5

[4] = Stability in mouse liver microsomes (MLM); format: in vitro ADME; settings: for CLint scaled at 10 μM / half-life at 10 μM / microsomal CLint at 10 μM: C57BL/6, pH 7.4, n = 3
Method: Additionally, the compounds’ stability in microsome were evaluated by measuring the rate of compounds consumpation in MLM and the results are shown in Table 3.
The microsomal pellet was suspended in potassium phosphate buffer (100 mM, pH 7.4), 10 μM test compound or positive control (diclofenac) was added. Liver microsomes from C57BL/6 mice (BD Gentest) were pooled. The mixture of microsome solution and compound was incubated at 37 °C for about 10 min in the presence of a NADPH-regenerating system, consisting of 0.02 M DL-isocitric acid (trisodium salt), 0.1 mg/mL isocitrate dehydrogenase and 1 mM NADPH. The addition of ice-cold CH3CN (including 100 ng/mL tolbutamide as internal standard) terminated the reaction. The mixture was vortexed for approx (30 s), centrifuged (20 min, 4000 rpm) and the supernatant was collected and analysed by LC-MS/MS method.

[5] = Rattus norvegicus, Hepatocyte, 1 h, read-out: IC50 (glycogenolysis inhibition, rat hepatocytes), isolated rat hepatocytes, 60-min incubation with 0.3 nM glucagon

Row | Structure (SMILES) | time within which degraded in SGF [1] [h] | time within which degraded in SIF [2] [h] | IC50 [3] | IC50 (HepG2 cells; Homo sapiens, HepG2, 1 h) [µM] | IC50 (isolated rat hepatocytes; [5]) [µM] | CLint scaled at 10 μM [4] [mL/min/kg] | half-life at 10 μM [4] [min] | microsomal CLint at 10 μM [4] [µL/min/mg] | stability in SGF (in words) [1] | fraction degraded during 24 h incubation in SIF [2] | melting point [°C] | metabolic stability in MLM (in words) [4] | IC50 (HepG2 cells) [µM] | IC50 (isolated rat hepatocytes; read-out: IC50 (glycogenolysis inhibition, rat hepatocytes), isolated rat hepatocytes, 60-min incubation with 0.3 nM glucagon) [µM]
1 | C[C@H](CCC(=O)NCC(=O)OC1CCN(C(=O)[C@H](Cc2ccc(F)cc2)NC(=O)c2cc3cc(Cl)ncc3[nH]2)CC1)[C@H]1CC[C@H]2[C@@H]3[C@H](O)C[C@@H]4C[C@H](O)CC[C@]4(C)[C@H]3C[C@H](O)[C@]12C [Conjugate 1] | ≤ 6 | ≤ 1 | 5.9 µM and 5.94 µM | 203 ± 3.39 | 41.1 ± 5.11 | 172 | 31.9 | 43.4 | – | – | – | – | – | –
2 | C[C@H](CCC(=O)N(C)CC(=O)OC1CCN(C(=O)[C@H](Cc2ccc(F)cc2)NC(=O)c2cc3cc(Cl)ncc3[nH]2)CC1)[C@H]1CC[C@H]2[C@@H]3[C@H](O)C[C@@H]4C[C@H](O)CC[C@]4(C)[C@H]3C[C@H](O)[C@]12C [Conjugate 2] | – | – | 26 ± 13.9 µM | 172 ± 18.2 | 845 ± 132 | 220 | 24.9 | 55.6 | stable | no more than 20% | 183 to 185 | – | – | –
3 | C[C@H](CCC(=O)N[C@@H](CO)C(=O)OC1CCN(C(=O)[C@H](Cc2ccc(F)cc2)NC(=O)c2cc3cc(Cl)ncc3[nH]2)CC1)[C@H]1CC[C@H]2[C@@H]3[C@H](O)C[C@@H]4C[C@H](O)CC[C@]4(C)[C@H]3C[C@H](O)[C@]12C [Conjugate 5] | – | ≤ 1 | 81.9 ± 14.4 µM | – | – | 135 | 40.8 | 34 | relatively stable | – | 175 to 177 | – | – | –
4 | CC(NC(=O)C(NC(=O)CCC(C)C1CCC2C3C(O)CC4CC(O)CCC4(C)C3CC(O)C12C)C(C)C)C(=O)OC1CCN(C(=O)C(Cc2ccc(F)cc2)NC(=O)c2cc3cc(Cl)ncc3[nH]2)CC1 (centres unmarked) [Conjugate 7] | ≤ 6 | ≤ 1 | 6.07 ± 0.27 µM | 11.7 ± 3.8 | 42.1 ± 10.9 | 1180 | 4.7 | 297 | – | – | – | – | – | –
5 | CC(CCC(=O)NC(Cc1ccccc1)C(=O)NC(CCCCN)C(=O)OC1CCN(C(=O)C(Cc2ccc(F)cc2)NC(=O)c2cc3cc(Cl)ncc3[nH]2)CC1)C1CCC2C3C(O)CC4CC(O)CCC4(C)C3CC(O)C12C (centres unmarked) [Conjugate 8] | – | ≤ 1 | 10.7 ± 5.6 µM | 36.8 ± 4.14 | 64.5 ± 4.4 | 64.2 | 85.6 | 16.2 | relatively stable | – | – | considerable metabolic stability | – | –
6 | C[C@H](CCC(=O)NCCNC(=O)c1ccc(/N=N/c2ccccc2CCC(=O)OC2CCN(C(=O)[C@H](Cc3ccc(F)cc3)NC(=O)c3cc4cc(Cl)ncc4[nH]3)CC2)cc1)[C@H]1CC[C@H]2[C@@H]3[C@H](O)C[C@@H]4C[C@H](O)CC[C@]4(C)[C@H]3C[C@H](O)[C@]12C [Conjugate 9] | – | – | 51.7 ± 4.1 µM | 6.4 | 12.3 | 60.2 | 91.2 | 15.2 | stable | no more than 20% | 172 to 174 | considerable metabolic stability | 6.41 ± 1.25 | 12.3 ± 3.93
